From patent US20190233906A1, “MUTANT STRAINS OF STAPHYLOCOCCUS AUREUS WITH MULTIPLE INACTIVATED TCS SYSTEMS” (priority 2015, published 2019) come the findings set out here.

Common to all, as to format: cell-based, Staphylococcus aureus
Experiment [1] deals with S. aureus 8325 ΔXV. Put plainly: Antimicrobial susceptibility test (VITEK 2 system). How it is done: (§1) Antibiotic sensitivity tests were performed at the University Clinic of Navarra. Antibiotics routinely used in clinic for treatment of S. aureus infections were tested by VITEK 2 system. • Growth Kinetics Analysis
For experiment [2], the system named is S. aureus MW2 ΔXV. Put plainly: Antimicrobial susceptibility test (VITEK 2 system). To be noted: for Susceptibility of MW2 ΔXV mutant compared with parental strain: MW2 ΔXV vs MW2; for Antimicrobial susceptibility (R/S) / MIC, Minimal inhibitory concentration: strain MW2 ΔXV. On the procedure:
as §1

The subject of experiment [3] is S. aureus 8325. On the procedure:
as §1

Experiment [4] relates to S. aureus MW2. Conditions: strain MW2. On the procedure: as §1

Where two headings read alike, the source gives them in different places. Marks after values point to notes of the source that are not given here.
Throughout, for Antimicrobial susceptibility (R/S): key: R: resistant; S: susceptible.

In the case of `CC(=O)NC[C@H]1CN(c2ccc(N3CCOCC3)c(F)c2)C(=O)O1` [Linezolid], the “Antimicrobial susceptibility (R/S)” value in experiment [1] (strain 8325 ΔXV), in experiment [2], in experiment [3] (strain 8325) and in experiment [4] was “S” in each case. The “Susceptibility of MW2 ΔXV mutant compared with parental strain” value in experiment [2] was “more susceptible”. Also, the “MIC, Minimal inhibitory concentration” value in experiment [2] is recorded as “(1)^a”; in experiment [4], “(2)^a”.
For `CN(C)c1cc(NC(=O)CNC(C)(C)C)c(O)c2c1C[C@H]1C[C@H]3[C@H](N(C)C)C(O)=C(C(N)=O)C(=O)[C@@]3(O)C(O)=C1C2=O` [Tigecycline], the “Antimicrobial susceptibility (R/S)” value in experiment [1] (strain 8325 ΔXV), in experiment [2], in experiment [3] (strain 8325) and in experiment [4] was “S” each time.
For `O=C1CN(/N=C/c2ccc([N+](=O)[O-])o2)C(=O)N1` [Nitrofurantoin], the “Antimicrobial susceptibility (R/S)” value in experiment [1] (strain 8325 ΔXV), in experiment [2], in experiment [3] and in experiment [4] was “S” each time. Besides, the results for the “MIC, Minimal inhibitory concentration” value in experiment [2] and in experiment [4] were “(≤16)^a” and “(32)^a”, respectively.
Take `O=C(N[C@H](CO)[C@H](O)c1ccc([N+](=O)[O-])cc1)C(Cl)Cl` [Chloramphenicol]: the “Antimicrobial susceptibility (R/S)” value in experiment [1] (strain 8325 ΔXV), in experiment [2], in experiment [3] (strain 8325) and in experiment [4] was “S” each time.
`NC[C@H]1O[C@H](O[C@H]2[C@H](O)[C@@H](O[C@H]3O[C@H](CO)[C@@H](O)[C@H](N)[C@H]3O)[C@H](N)C[C@@H]2N)[C@H](N)C[C@@H]1O` [Tobramycin]: the “Antimicrobial susceptibility (R/S)” value in experiment [1] (strain 8325 ΔXV), in experiment [2], in experiment [3] (strain 8325) and in experiment [4] was “S” in each case.
Turning to `Cc1onc(-c2ccccc2Cl)c1C(=O)N[C@@H]1C(=O)N2[C@@H]1SC(C)(C)[C@@H]2C(=O)O` [Cloxacillin], the “Antimicrobial susceptibility (R/S)” value in experiment [1] (strain 8325 ΔXV) is listed as “S”; in experiment [2] it was “R”; in experiment [3] (strain 8325), “S”; in experiment [4] it was “R”.
Turning to Gentamicin, the “Antimicrobial susceptibility (R/S)” value in experiment [1] (strain 8325 ΔXV), in experiment [2], in experiment [3] (strain 8325) and in experiment [4] was “S” in each case.
For `CC[C@H]1OC(=O)[C@H](C)[C@@H](O[C@H]2C[C@@](C)(OC)[C@@H](O)[C@H](C)O2)[C@H](C)[C@@H](O[C@@H]2O[C@H](C)C[C@H](N(C)C)[C@H]2O)[C@](C)(O)C[C@@H](C)C(=O)[C@H](C)[C@@H](O)[C@]1(C)O` [Erithromycin], the “Antimicrobial susceptibility (R/S)” value in experiment [1] (strain 8325 ΔXV), in experiment [2], in experiment [3] (strain 8325) and in experiment [4] was “S” in each case.
Consider Quinuspristin/Dalfopristin, for which the “Antimicrobial susceptibility (R/S)” value in experiment [1] (strain 8325 ΔXV), in experiment [2], in experiment [3] (strain 8325) and in experiment [4] was “S” throughout.
Take `CC(=O)O[C@H]1C[C@@]2(C)[C@@H](C[C@@H](O)[C@H]3[C@@]4(C)CC[C@@H](O)[C@@H](C)[C@@H]4CC[C@@]32C)/C1=C(\CCC=C(C)C)C(=O)O` [Fusidic acid]: the “Antimicrobial susceptibility (R/S)” value in experiment [1] (strain 8325 ΔXV), in experiment [2], in experiment [3] (strain 8325) and in experiment [4] was “S” in each case.
As to `CCC[C@@H]1C[C@@H](C(=O)N[C@@H]([C@H]2O[C@H](SC)[C@H](O)[C@@H](O)[C@H]2O)[C@H](C)Cl)N(C)C1` [Clindamycin], the “Antimicrobial susceptibility (R/S)” value in experiment [1] (strain 8325 ΔXV), in experiment [2], in experiment [3] (strain 8325) and in experiment [4] was “S” each time.
As to `CO/N=C(\C(=O)N[C@@H]1C(=O)N2C(C(=O)O)=C(COC(N)=O)CS[C@H]12)c1ccco1` [Cefuroxime], the “Antimicrobial susceptibility (R/S)” value is recorded as “S” in experiment [1] (strain 8325 ΔXV), “R” in experiment [2], “S” in experiment [3] (strain 8325) and “R” in experiment [4].
Take `Cc1onc(-c2ccccc2)c1C(=O)N[C@@H]1C(=O)N2[C@@H]1SC(C)(C)[C@@H]2C(=O)O` [Oxacillin]: the “Antimicrobial susceptibility (R/S)” value in experiment [1] (strain 8325 ΔXV) was “S”; in experiment [2] it was “R”; in experiment [3] (strain 8325), “S”; in experiment [4], “R”. Further, the “Susceptibility of MW2 ΔXV mutant compared with parental strain” value in experiment [2] was “more susceptible”. Besides, the “MIC, Minimal inhibitory concentration” value was “(2)^a” in experiment [2] and “(≥4)^a” in experiment [4].
With `CC[C@H]1OC(=O)[C@H](C)[C@@H](O[C@H]2C[C@@](C)(OC)[C@@H](O)[C@H](C)O2)[C@H](C)[C@@H](O[C@@H]2O[C@H](C)C[C@H](N(C)C)[C@H]2O)[C@](C)(OC)C[C@@H](C)C(=O)[C@H](C)[C@@H](O)[C@]1(C)O` [Clarithromycin], the “Antimicrobial susceptibility (R/S)” value in experiment [1] (strain 8325 ΔXV), in experiment [2], in experiment [3] (strain 8325) and in experiment [4] was “S” throughout.
Regarding Trimethoprim/Sulfamethoxazole, the “Antimicrobial susceptibility (R/S)” value in experiment [1] (strain 8325 ΔXV), in experiment [2], in experiment [3] (strain 8325) and in experiment [4] was “S” throughout.
With `CO[C@H]1/C=C/O[C@@]2(C)Oc3c(C)c(O)c4c(O)c(c(/C=N/N5CCN(C)CC5)c(O)c4c3C2=O)NC(=O)/C(C)=C\C=C\[C@H](C)[C@H](O)[C@@H](C)[C@@H](O)[C@@H](C)[C@H](OC(C)=O)[C@@H]1C` [Rifampicin], the “Antimicrobial susceptibility (R/S)” value in experiment [1] (strain 8325 ΔXV), in experiment [2], in experiment [3] (strain 8325) and in experiment [4] was “S” in each case.
With `CO[C@@]1(NC(=O)Cc2cccs2)C(=O)N2C(C(=O)O)=C(COC(N)=O)CS[C@@H]21` [Cefoxitin], the “Antimicrobial susceptibility (R/S)” value in experiment [1] (strain 8325 ΔXV) is recorded as “S”; in experiment [2], “S”; in experiment [3] (strain 8325), “S”; in experiment [4] it was “R”. In addition, the “Susceptibility of MW2 ΔXV mutant compared with parental strain” value in experiment [2] is on record as “more susceptible”.
In the case of `C[C@H]1COc2c(N3CCN(C)CC3)c(F)cc3c(=O)c(C(=O)O)cn1c23` [Levofloxacin], the “Antimicrobial susceptibility (R/S)” value in experiment [1] (strain 8325 ΔXV), in experiment [2], in experiment [3] (strain 8325) and in experiment [4] was “S” in each case. Besides, the “MIC, Minimal inhibitory concentration” value is given as “(≤0.12)^a” in experiment [2] and “(≤0.25)^a” in experiment [4].
As to `CC1(C)S[C@@H]2[C@H](NC(=O)Cc3ccccc3)C(=O)N2[C@H]1C(=O)O` [Bencilpenicillin], the “Susceptibility of 8325 ΔXV mutant compared with parental strain” value in experiment [1] (8325 ΔXV vs 8325) is “higher susceptibility”. The “Antimicrobial susceptibility (R/S)” value in experiment [1] (strain 8325 ΔXV) is listed as “S”; in experiment [2], “R”; in experiment [3] (strain 8325) it was “R”; in experiment [4], “R”. For the same compound, the “MIC, Minimal inhibitory concentration” value in experiment [1] (strain 8325 ΔXV) is reported as “(0.12)”; in experiment [3] (strain 8325), “(0.25)”.
